# ChEMBL document CHEMBL3425413, “Structure-based design and synthesis of covalent-reversible inhibitors to overcome drug resistance in EGFR” (Bioorg Med Chem, 2015)
# Activity calls are given as the source filed them. The rule behind the calls is not given here.
# Columns and labels:
# [1] = target: Epidermal growth factor receptor (Homo sapiens, UniProt P00533, L858R); test: Inhibition of GST-tagged human recombinant EGFR catalytic domain (668 to 1210 amino acids) L858R mutant expressed in Sf9 cells pre-incubated for 30 mins before ATP and substrate addition by homogeneous time-resolved FRET assay
# Epidermal growth factor receptor (Homo sapiens, UniProt P00533, L858R), sequence (P00533 25-1210 L858R limits assumed): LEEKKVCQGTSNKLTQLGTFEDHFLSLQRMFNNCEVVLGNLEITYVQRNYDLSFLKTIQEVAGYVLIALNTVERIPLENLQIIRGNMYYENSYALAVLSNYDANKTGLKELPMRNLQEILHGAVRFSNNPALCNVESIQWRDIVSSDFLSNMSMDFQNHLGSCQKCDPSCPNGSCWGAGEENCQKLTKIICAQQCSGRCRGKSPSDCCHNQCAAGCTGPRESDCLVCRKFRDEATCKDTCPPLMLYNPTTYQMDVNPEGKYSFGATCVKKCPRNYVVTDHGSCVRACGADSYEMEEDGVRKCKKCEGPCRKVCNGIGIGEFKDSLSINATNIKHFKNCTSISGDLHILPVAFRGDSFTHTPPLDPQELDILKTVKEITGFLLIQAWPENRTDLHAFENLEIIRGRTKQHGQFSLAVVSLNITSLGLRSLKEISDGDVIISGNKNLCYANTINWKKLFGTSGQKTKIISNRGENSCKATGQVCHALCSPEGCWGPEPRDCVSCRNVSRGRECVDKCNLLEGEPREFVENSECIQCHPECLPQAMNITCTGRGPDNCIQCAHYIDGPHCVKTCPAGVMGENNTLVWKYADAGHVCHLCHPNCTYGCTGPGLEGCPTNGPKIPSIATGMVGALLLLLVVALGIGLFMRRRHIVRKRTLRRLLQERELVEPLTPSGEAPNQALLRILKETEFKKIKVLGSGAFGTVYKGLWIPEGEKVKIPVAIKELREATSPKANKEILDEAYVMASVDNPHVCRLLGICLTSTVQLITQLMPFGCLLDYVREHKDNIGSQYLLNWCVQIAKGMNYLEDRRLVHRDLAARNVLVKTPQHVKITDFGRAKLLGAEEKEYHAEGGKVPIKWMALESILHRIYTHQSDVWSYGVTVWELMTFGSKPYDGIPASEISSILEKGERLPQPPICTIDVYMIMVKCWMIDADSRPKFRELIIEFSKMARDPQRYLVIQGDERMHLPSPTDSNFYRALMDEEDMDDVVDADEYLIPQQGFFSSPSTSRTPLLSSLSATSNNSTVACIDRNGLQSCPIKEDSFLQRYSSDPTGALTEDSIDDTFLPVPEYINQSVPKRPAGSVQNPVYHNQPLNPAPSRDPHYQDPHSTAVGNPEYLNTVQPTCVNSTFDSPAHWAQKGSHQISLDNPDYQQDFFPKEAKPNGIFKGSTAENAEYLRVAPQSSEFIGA
# [2] = target: Epidermal growth factor receptor (Homo sapiens, UniProt P00533, L858R/T790M); test: Inhibition of GST-tagged human recombinant EGFR catalytic domain (668 to 1210 amino acids) T790M/L858R mutant expressed in Sf9 cells pre-incubated for 30 mins before ATP and substrate addition by homogeneous time-resolved FRET assay
# Epidermal growth factor receptor (Homo sapiens, UniProt P00533, L858R/T790M), sequence (P00533 25-1210 T790M/L858R limits assumed): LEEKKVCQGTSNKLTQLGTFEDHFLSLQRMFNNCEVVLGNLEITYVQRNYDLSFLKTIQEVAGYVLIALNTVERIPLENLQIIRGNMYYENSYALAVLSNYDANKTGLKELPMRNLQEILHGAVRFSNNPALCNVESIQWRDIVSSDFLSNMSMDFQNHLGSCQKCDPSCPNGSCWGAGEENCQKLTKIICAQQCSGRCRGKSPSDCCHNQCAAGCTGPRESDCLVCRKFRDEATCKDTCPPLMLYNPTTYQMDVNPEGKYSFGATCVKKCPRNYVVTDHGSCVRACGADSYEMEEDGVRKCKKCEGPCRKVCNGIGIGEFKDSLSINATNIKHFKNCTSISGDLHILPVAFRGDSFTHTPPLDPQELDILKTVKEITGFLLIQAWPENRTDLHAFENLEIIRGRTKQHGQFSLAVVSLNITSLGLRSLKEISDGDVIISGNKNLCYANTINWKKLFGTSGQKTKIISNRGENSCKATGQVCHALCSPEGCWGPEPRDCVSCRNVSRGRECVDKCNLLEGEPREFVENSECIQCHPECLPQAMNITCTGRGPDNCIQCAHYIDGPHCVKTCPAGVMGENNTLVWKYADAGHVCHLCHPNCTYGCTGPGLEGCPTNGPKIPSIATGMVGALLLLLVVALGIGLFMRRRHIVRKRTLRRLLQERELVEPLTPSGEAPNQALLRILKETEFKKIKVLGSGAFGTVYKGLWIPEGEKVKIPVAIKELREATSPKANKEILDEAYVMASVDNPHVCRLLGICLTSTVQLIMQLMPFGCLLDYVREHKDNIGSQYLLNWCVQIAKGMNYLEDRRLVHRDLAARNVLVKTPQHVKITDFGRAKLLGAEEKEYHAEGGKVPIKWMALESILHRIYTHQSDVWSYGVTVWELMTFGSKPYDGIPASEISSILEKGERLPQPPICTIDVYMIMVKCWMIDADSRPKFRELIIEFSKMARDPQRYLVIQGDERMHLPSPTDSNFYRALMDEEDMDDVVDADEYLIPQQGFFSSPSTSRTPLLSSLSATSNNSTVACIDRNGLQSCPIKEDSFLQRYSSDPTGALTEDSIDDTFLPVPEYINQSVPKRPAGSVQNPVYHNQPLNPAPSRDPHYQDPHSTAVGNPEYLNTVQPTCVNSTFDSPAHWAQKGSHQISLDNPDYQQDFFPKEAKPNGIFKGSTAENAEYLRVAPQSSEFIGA
# [3] = target: Epidermal growth factor receptor (Homo sapiens, UniProt P00533); test: Inhibition of wild type N-terminal His6-tagged human EGFR kinase domain (702 to 1016 residues) expressed in Sf9 cells pre-incubated for 30 mins before ATP and substrate addition by homogeneous time-resolved FRET assay
# Epidermal growth factor receptor (Homo sapiens, UniProt P00533), sequence (P00533 whole entry, the tested form may be a part): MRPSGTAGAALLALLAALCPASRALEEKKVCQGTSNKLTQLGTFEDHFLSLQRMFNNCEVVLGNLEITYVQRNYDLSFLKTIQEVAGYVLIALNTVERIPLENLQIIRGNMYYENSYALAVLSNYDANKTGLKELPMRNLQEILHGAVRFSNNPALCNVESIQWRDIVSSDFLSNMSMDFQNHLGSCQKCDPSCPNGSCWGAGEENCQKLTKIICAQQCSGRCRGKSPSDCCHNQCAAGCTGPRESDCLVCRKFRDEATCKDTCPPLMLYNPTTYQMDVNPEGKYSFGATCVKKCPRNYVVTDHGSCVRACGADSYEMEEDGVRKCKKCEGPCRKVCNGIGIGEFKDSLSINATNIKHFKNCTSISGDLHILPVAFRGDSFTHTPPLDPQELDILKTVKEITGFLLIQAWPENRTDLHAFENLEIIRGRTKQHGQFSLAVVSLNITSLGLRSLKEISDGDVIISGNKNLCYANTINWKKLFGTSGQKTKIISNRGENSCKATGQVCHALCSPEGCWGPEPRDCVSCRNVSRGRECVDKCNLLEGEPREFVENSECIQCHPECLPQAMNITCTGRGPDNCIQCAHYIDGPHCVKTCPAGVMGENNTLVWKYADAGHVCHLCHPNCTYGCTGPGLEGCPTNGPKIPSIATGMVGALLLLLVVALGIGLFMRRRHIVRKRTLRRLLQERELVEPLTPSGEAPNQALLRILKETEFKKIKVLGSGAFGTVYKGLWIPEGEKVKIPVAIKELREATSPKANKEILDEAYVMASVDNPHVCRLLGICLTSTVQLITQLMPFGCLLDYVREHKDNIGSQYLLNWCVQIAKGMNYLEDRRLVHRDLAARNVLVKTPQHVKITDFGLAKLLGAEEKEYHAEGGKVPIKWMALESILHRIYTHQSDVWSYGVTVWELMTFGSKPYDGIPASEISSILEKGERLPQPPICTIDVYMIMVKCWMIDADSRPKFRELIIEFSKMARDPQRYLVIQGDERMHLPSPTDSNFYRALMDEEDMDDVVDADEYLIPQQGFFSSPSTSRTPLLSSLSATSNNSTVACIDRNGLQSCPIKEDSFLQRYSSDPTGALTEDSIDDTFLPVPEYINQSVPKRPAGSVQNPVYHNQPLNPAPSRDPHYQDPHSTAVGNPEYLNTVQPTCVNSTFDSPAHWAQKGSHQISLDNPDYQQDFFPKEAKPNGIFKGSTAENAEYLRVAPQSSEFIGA
# [4] = target: Proto-oncogene tyrosine-protein kinase Src (Homo sapiens) (UniProt P12931); test: Induction of covalent modification of wild type c-Src kinase domain (251 to 533 residues) (unknown origin) at 100 uM incubated for 1 hr by mass spectrometry method
# [5] = system: Proto-oncogene tyrosine-protein kinase Src (Homo sapiens), P12931 [T341M,S348C]; test: Induction of covalent modification of c-Src kinase domain (251 to 533 residues) T338M/S345C mutant (unknown origin) at 100 uM incubated for 1 hr by mass spectrometry method
# [6] = system: Proto-oncogene tyrosine-protein kinase Src (Homo sapiens), P12931 [T341M,S348C]; test: Induction of covalent modification of c-Src kinase domain (251 to 533 residues) T338M/S345C mutant (unknown origin) assessed as protein mass increase at 100 uM incubated for 1 hr by mass spectrometry method
Structure (SMILES),IC50 [1] [nM],IC50 [2] [nM],IC50 [3] [nM],Activity [4],Activity [5],Activity [6] [Da]
COc1cc(N2CCN(C)CC2)ccc1Nc1ncc(Cl)c(Oc2cccc(NC(=O)/C(C#N)=C/c3ccco3)c2)n1,1300,330,> 10000,,,
COc1cc(N2CCN(C)CC2)ccc1Nc1ncc(Cl)c(Oc2cccc(NC(=O)/C(C#N)=C/c3ccc([N+](=O)[O-])cc3)c2)n1,2300,1200,> 10000,,,
COc1cc(N2CCN(C)CC2)ccc1Nc1ncc(Cl)c(Oc2cccc(NC(=O)/C(C#N)=C/C3CCCC3)c2)n1,2200,1200,> 10000,,,
COc1cc(N2CCN(C)CC2)ccc1Nc1ncc(Cl)c(Oc2cccc(NC(=O)CCC3CC3)c2)n1,2000,770,> 10000,inactive,inactive,
COc1cc(N2CCN(C)CC2)ccc1Nc1ncc(Cl)c(Oc2cccc(NC(=O)/C(C#N)=C/c3ccc(F)cc3)c2)n1,540,120,7000,,,
COc1cc(N2CCN(C)CC2)ccc1Nc1ncc(Cl)c(Oc2cccc(NC(=O)/C(=C/c3ccc(N(C)C)cc3)C(F)(F)F)c2)n1,6300,2200,> 10000,,,
COc1cc(N2CCN(C)CC2)ccc1Nc1ncc(Cl)c(Oc2cccc(NC(=O)/C(C#N)=C/C(C)C)c2)n1,1200,800,> 10000,,,
COc1cc(N2CCN(C)CC2)ccc1Nc1ncc(Cl)c(Oc2cccc(NC(=O)/C(C#N)=C/C3CC3)c2)n1,,,,Active,,560
COc1cc(N2CCN(C)CC2)ccc1Nc1ncc(Cl)c(Oc2cccc(NC(=O)/C(C#N)=C/c3ccc(SC)cc3)c2)n1,830,510,4800,,,
COc1cc(N2CCN(C)CC2)ccc1Nc1ncc(Cl)c(Oc2cccc(NC(=O)/C=C/C3CC3)c2)n1,2800,830,5600,,,537
COc1cc(N2CCN(C)CC2)ccc1Nc1ncc(Cl)c(Oc2cccc(NC(=O)/C(C#N)=C/C(C)(C)C)c2)n1,1300,400,> 10000,,,
COc1cc(N2CCN(C)CC2)ccc1Nc1ncc(Cl)c(Oc2cccc(NC(=O)/C(C#N)=C/c3cccc([N+](=O)[O-])c3)c2)n1,1800,720,> 10000,,,
COc1cc(N2CCN(C)CC2)ccc1Nc1ncc(Cl)c(Oc2cccc(NC(=O)/C(C#N)=C/c3ccc(N(C)C)cc3)c2)n1,> 10000,> 10000,> 10000,,,
COc1cc(N2CCN(C)CC2)ccc1Nc1ncc(Cl)c(Oc2cccc(NC(C)=O)c2)n1,490,180,> 10000,,,
COc1cc(N2CCN(C)CC2)ccc1Nc1ncc(Cl)c(Oc2cccc(NC(=O)/C(C#N)=C/c3ccncc3)c2)n1,150,37,8700,,,
COc1cc(N2CCN(C)CC2)ccc1Nc1ncc(Cl)c(Oc2cccc(NC(=O)/C(C#N)=C/c3ccc(C#N)cc3)c2)n1,1800,940,> 10000,,,
COc1cc(N2CCN(C)CC2)ccc1Nc1ncc(Cl)c(Oc2cccc(NC(=O)/C(=C/c3ccc(F)cc3)C(F)(F)F)c2)n1,> 10000,6300,> 10000,,,
